Like-named read-outs stand apart in the source and are kept apart here.

Type in all cases: cell-based
Data set [1] has as its system Bone marrow-derived human mesenchymal stem cells (BM-hMSC). Description: Cells cultured by hanging drop method, ATP assay (Experimental Example 12). As to conditions: for cell number (relative value): BM-hMSC, hanging drop, 5 μM, 2 days, control = 100%; for cell number (in words): bone marrow-derived human mesenchymal stem cells, hanging drop method. As for the experimental part: (§1) Human epithelial-like cell cancer-derived cell line A431 (manufactured by ATCC) was cultured using 10% FBS and 1% MEM non-essential amino acid solution (MEM NEAA, manufactured by Wako Pure Chemical Industries, Ltd.)-containing EMEM (manufactured by Wako Pure Chemical Industries, Ltd.)). In addition, bone marrow-derived human mesenchymal stem cells (BM-hMSC, manufactured by PromoCell) were cultured using a mesenchymal stem cell proliferation medium (manufactured by PromoCell). Each of the above-mentioned cells in the logarithmic growth phase was washed with PBS, a 0.25 w/v % trypsin-1 mmol/L EDTA (ethylenediaminetetraacetic acid) solution (manufactured by Wako Pure Chemical Industries, Ltd.) was added, and the cells were detached by incubating at 37° C. for 3 min. Each medium was added, the mixture was centrifuged, and the supernatant was removed.
(§2) The cell suspension was seeded by 10 μL in 15 drops on the back surface of the lid of a 3.5 cm dish (manufactured by Falcon, #351008) to form droplets. At this time, as a control, a medium supplemented with DMSO (final concentration of DMSO: 0.05%) was seeded by 10 μL in 15 drops. The lid was returned to a 3.5 cm dish added with 2 mL of PBS, and cultured for 2 days in an incubator at 37° C., 5% CO2. The cultured droplets were collected in a 1.5 mL tube, and the medium was added to a final volume of 150 μL.

The test system of data set [2] is human epithelial-like cell cancer-derived cell line A431. The description is as above. The following applies: for cell number (in words): A431 cell line, three-dimensional cell culture by the hanging drop method; for cell number (relative value): A431 cell, hanging drop, 5 μM, 2 days, control = 100%. As for the experimental part: as §1, §2
The test system of data set [3] is human ovarian cancer cell line SKOV3. Description: Action on SKOV3 cell-1: 3D (deacylated gellan gum) and 2D culture, HB-EGF medium, ATP assay (Experimental Example 2). As to conditions: for relative value of RLU (number of viable cells) / viability at 0.5 µM / viability at 1 µM / viability at 5 µM / viability at 10 µM / viability at 20 µM: 4 days, compound non-addition = 100%; for viability at 0.5 µM / viability at 1 µM / viability at 5 µM / viability at 10 µM / viability at 20 µM: Homo sapiens, SK-OV-3, 96 h, read-out: relative value of RLU (number of viable cells).
Protocol: According to the method of patent document 1 (WO 2014/017513), a composition of McCoy's 5a medium (manufactured by Sigma-Aldrich) containing 0.015% (w/v) deacylated gellan gum (KELCOGEL CG-LA, manufactured by Sansho Co., Ltd.) and 15% (v/v) FBS, 100 ng/mL human HB-EGF (manufactured by PEPROTECH) was prepared by a homomixer. As a control, a non-addition medium composition not containing deacylated gellan gum was prepared. Then, human ovarian cancer cell line SKOV3 (manufactured by DS PHARMA BIO MEDICAL) was suspended in the above-mentioned medium composition added with deacylated gellan gum, and dispensed into the wells of a 384 well flat bottom Ultr-low Attachment surface microplate (manufactured by Corning Incorporated, #3827) at 1000 cells/40 μL/well (three-dimensional culture (3D)). In a single layer culture (2D), human ovarian cancer cell line SKOV3 was suspended in the above-mentioned medium is composition not containing deacylated gellan gum, and dispensed into the wells of a 384 well flat bottom microplate (manufactured by Corning Incorporated, #3712) at 400 cells/40 L per well. Each plate was cultured in a standing state in a CO2 incubator (37° C., 5% CO2). On day 1 of culture, the compound to be used in the present invention dissolved in dimethyl sulfoxide (DMSO) was added by 4.4 μL each at a final concentration of 0, 0.5, 1, 5, 10, 20 μM, and continuously cultured for 4 days. An ATP reagent (44.4 μL) (CellTiter-Glo (registered trade mark) Luminescent Cell Viability Assay, manufactured by Promega) was added to and suspended in the culture medium on day 5, and the suspension was stood for 15 min at room temperature. The luminescence intensity (RLU value) was measured by FlexStation3 (manufactured by Molecular Devices) and the luminescence value of the medium alone was subtracted to measure the number of viable cells.

The subject of data set [4] is mouse small intestinal organoid (Crypt). Description: Small intestine organoid formation in Matrigel (Experimental Example 4). The following applies: 5 μM, 7 days. As for the experimental part:
About 20 cm of the mouse small intestine was excised, and the adipose tissue and vascular tissue were removed on ice. The contents were sufficiently washed with PBS, cut open with scissors, and fragmented to about 2 mm. They were washed 20 times with 15 mL of PBS and the supernatant was removed. 25 mL of Gentle Cell Dissociation Reagent (manufactured by STEMCELL) was added, and the mixture was incubated at room temperature for 15 min while stirring at 20 rpm. The supernatant was removed, 10 mL of cold 0.1% BSA/PBS was added to the precipitate, and pipetting was performed three times. The supernatant was filtered with a 70 μm cell strainer (manufactured by BD Bioscience), and the filtrate was collected. Similarly, addition of 0.1% BSA/PBS to the remaining precipitate, pipetting, and filtration were repeated three times, and thus series of the four filtrates were prepared. Each filtrate was centrifuged at 290 g for 5 min at 4° C. After removing the supernatant, the cells were resuspended in 10 mL of cold 0.1% BSA/PBS and centrifuged at 200 g for 3 min at 4° C. The supernatant was removed, 10 mL of DMEM/F12 (manufactured by Wako Pure Chemical Industries, Ltd.) was added and the cells were suspended. 1 mL was separated and observed under a microscope. A filtrate having a sufficient intestinal fragment (Crypt) was selected, and the number of Crypt was counted using a hemocytometer. Cold Matrigel (registered trade mark) Matrix GFR(manufactured by Corning) in an equal amount to the cell suspension was added, mixed, and quickly dispensed into a 24-well plate warmed to 37° C. at 500 crypts/[…]/well. The plate was allowed to stand at 37° C. for 10 min to complete gelation. […] As a control, a well with no addition of the compound was prepared. After culturing for 7 days, the number and diameter of the formed small intestinal organoids were measured under a microscope, and the comparison results with no addition (control) are shown in the ninth table.

The test system of data set [5] is Canine kidney renal tubule epithelial cells (MDCK cells). Description: MDCK cells-1: Cyst formation on Matrigel, Cyst area by fluorescence microscope (Experimental Example 7). The following applies: 10 μM, 7 days. As for the experimental part:
Canine kidney renal tubule epithelial cells (MDCK cells, manufactured by DS PHARMA BIO MEDICAL) were precultured in EMEM medium containing 10% FBS and 1% NEAA. Cold Matrigel (registered trade mark) Matrix GFR (manufactured by Corning) was spread on a 24-well plate by 50 μL and fixed by incubating at 37° C. for 15 min. The aforementioned MDCK cells were suspended in a medium at a concentration of 20000 cells/mL, cold Matrigel (registered trade mark) Matrix GFR was added at […] and seeded at 1 mL/well. […] As a control (compound no-addition), DMSO was added at a final concentration of 0.1%. Seven days later, the cells were washed with PBS (1 mL/well), 4% paraformaldehyde/PBS (manufactured by Wako Pure Chemical Industries, Ltd.) was added (1 mL/well) and fixed at room temperature for 20 min. Thereafter, the supernatant was removed, IF buffer (0.2% Triton X-100 (manufactured by Sigma-Aldrich), 0.05% Tween 20 (manufactured by Sigma-Aldrich)-containing PBS) were added at 1 mL/well, stood for 30 min and removed. […] After washing 3 times every 5 min with IF buffer, VECTASHIELD Mounting Medium with DAPI (manufactured by Vector Laboratories) was added dropwise, and the cells were observed and analyzed with a fluorescence microscope (ArrayScan, manufactured by Thermo Fisher Scientific).

Where [6] appears, read: 2D single layer culture, 0.5 μM.
Where [7] appears, read: 3D culture (deacylated gellan gum), 0.5 μM.
Where [8] appears, read: 3D culture (deacylated gellan gum), 1 μM.
[9] abbreviates: 3D culture (deacylated gellan gum), 5 μM.
[10] abbreviates: 3D culture (deacylated gellan gum), 10 μM.
Where [11] appears, read: 3D culture (deacylated gellan gum), 20 μM.
Where [12] appears, read: single layer culture (2D) of SKOV3 cells.
The mark [13] stands for this setting: three-dimensional culture (3D) of SKOV3 cells.

Take `CC/C(=N\NC(=O)C(C)Nc1ccccc1)c1ccc(O)c(C)c1O` (stereo not shown) [k-1:B-1]: in data set [1], the “cell number (relative value)” value stood at 223% and the “cell number (in words)” value is reported as “showed an effect of increasing the number”. Moreover, in data set [2], the “cell number (in words)” value was “showed an effect of increasing the number” and the “cell number (relative value)” value is on record as 227%.

Regarding `CCC(=NNC(=O)C(CC)Nc1ccccc1)c1ccc(O)c(C)c1O` (stereo not shown) [k-1:H-7], the “relative value of RLU (number of viable cells)” value in data set [3] (setting [6]) was determined as 110%; in data set [3] (2D single layer culture, 1 μM), 105%; in data set [3] (2D single layer culture, 5 μM), 91%; in data set [3] (2D single layer culture, 10 μM), 69%; in data set [3] (2D single layer culture, 20 μM) it was 47%; in data set [3] (setting [7]), 104%. Also, the “relative value of RLU (number of viable cells)” value in data set [3] (setting [8]) came out at 137%; in data set [3] (setting [9]), 176%; in data set [3] (setting [10]), 150%; in data set [3] (setting [11]), 110%. The “cell proliferation promoting effect (in words)” value was “a favorable cell proliferation promoting effect was not observed” in data set [3] (setting [12]) and “exhibited cell proliferation promoting effect at a wide concentration range” in data set [3] (setting [13]). Further, the “organoid diameter (μm)” value in data set [4] (control 130 ± 18) is on record as 153 ± 21 μm. Besides, the “organoid number (relative value)” value in data set [4] (control = 1) is listed as 2.5. Also, in data set [4] (mouse small intestinal organoid culture), the “organoid formation (in words)” value was “promotes organoid formation”. For the same molecule, in data set [5] (Control as 100), the “increase of the area per one Cyst” value was not below 20%. Further, in data set [5] (control = 100), the “Cyst area (relative value)” value is 124. Further, the “cell number (relative value)” value came to 206% in data set [1] and 232% in data set [2]. The “cell number (in words)” value in data set [1] and in data set [2] was “showed an effect of increasing the number” each time.

With `CC/C(=N\NC(=O)Nc1ccccc1)c1ccc(O)c(C)c1O` [k-1:H-10], the viability at 0.5 µM in data set [3] (setting [6]) turned out to be 111%; in data set [3] (setting [7]) it was 120%. Moreover, the viability at 1 µM in data set [3] (2D single layer culture, 1 μM) came out at 108%; in data set [3] (setting [8]) it was 120%. In addition, the viability at 5 µM stood at 102% in data set [3] (2D single layer culture, 5 μM) and 128% in data set [3] (setting [9]). Also, the viability at 10 µM came to 99% in data set [3] (2D single layer culture, 10 μM) and 138% in data set [3] (setting [10]). The viability at 20 µM in data set [3] (2D single layer culture, 20 μM) is 66%; in data set [3] (setting [11]), 129%. In addition, the “cell proliferation promoting effect (in words)” value in data set [3] (setting [12]) is listed as “a favorable cell proliferation promoting effect was not observed”; in data set [3] (setting [13]), “exhibited cell proliferation promoting effect at a wide concentration range”.

The record behind these values is US20200165194A1, “ADDITIVE COMPOSITION FOR CULTURE MEDIUM, ADDITIVE COMPOUND FOR CULTURE MEDIUM, AND METHOD FOR CULTURE OF CELLS OR TISSUE USING SAME” (NISSAN CHEMICAL CORPORATION, priority 2017, published 2020).
